Test results taken from ChEMBL document CHEMBL4396870, “Pharmacological Chaperones for the Treatment of α-Mannosidosis” (J Med Chem, 2019).
Substitutions are numbered along the chain they refer to.

Tests used:
[1] = system: T1, Lysosomal alpha-mannosidase (Homo sapiens), O00754 [C55F]; test: Chaperone activity at human Lysosomal alpha-mannosidase C55F mutant transfected in human […] knockout HAP1 cells assessed as enzyme activity enhancement at 20 uM incubated for 96 hrs relative to control
T1 sequence (whole entry): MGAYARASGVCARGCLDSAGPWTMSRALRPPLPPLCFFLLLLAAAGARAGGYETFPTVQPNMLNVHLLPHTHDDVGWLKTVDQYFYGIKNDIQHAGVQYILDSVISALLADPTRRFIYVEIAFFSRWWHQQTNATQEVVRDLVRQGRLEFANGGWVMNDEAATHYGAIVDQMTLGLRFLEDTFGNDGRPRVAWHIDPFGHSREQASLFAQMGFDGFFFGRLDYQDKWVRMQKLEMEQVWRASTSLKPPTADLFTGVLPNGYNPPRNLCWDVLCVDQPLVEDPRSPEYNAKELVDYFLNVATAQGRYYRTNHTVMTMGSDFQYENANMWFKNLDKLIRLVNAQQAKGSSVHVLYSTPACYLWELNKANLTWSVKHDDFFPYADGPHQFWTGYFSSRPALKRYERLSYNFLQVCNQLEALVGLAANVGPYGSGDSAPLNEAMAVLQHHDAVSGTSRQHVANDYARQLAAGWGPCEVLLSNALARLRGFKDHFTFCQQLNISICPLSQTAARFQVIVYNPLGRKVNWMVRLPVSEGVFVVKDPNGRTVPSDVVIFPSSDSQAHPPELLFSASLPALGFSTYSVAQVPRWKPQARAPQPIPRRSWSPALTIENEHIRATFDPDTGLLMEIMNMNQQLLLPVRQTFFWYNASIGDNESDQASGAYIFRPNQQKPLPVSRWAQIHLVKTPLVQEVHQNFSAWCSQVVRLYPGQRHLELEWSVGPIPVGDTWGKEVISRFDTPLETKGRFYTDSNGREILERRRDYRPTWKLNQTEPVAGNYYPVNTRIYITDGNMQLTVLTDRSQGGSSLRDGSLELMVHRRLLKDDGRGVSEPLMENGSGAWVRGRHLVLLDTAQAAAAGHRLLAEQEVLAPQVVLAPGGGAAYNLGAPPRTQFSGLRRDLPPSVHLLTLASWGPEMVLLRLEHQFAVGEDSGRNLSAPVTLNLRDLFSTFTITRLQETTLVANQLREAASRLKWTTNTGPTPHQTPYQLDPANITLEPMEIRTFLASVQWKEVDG

[2] = system: T2, Lysosomal alpha-mannosidase (Homo sapiens), O00754 [L352P]; test: Chaperone activity at human Lysosomal alpha-mannosidase L352P mutant transfected in human […] knockout HAP1 cells assessed as enzyme activity enhancement at 2 uM incubated for 96 hrs relative to control
T2 sequence (whole entry): T1 sequence (whole entry) with F55C, L352P

[3] = system: T2, Lysosomal alpha-mannosidase (Homo sapiens), O00754 [L352P]; test: Chaperone activity at human Lysosomal alpha-mannosidase L352P mutant transfected in human […] knockout HAP1 cells assessed as enzyme activity enhancement at 0.2 uM incubated for 96 hrs relative to control
[4] = system: T2, Lysosomal alpha-mannosidase (Homo sapiens), O00754 [L352P]; test: Chaperone activity at human Lysosomal alpha-mannosidase L352P mutant transfected in human […] knockout HAP1 cells assessed as enzyme activity enhancement at 20 uM incubated for 96 hrs relative to control

CC(C)(C)OC(=O)NCCCCCCCCCN[C@@H]1[C@@H](O)[C@@H](O)[C@H](O)[C@H]2COC(=O)N21 showed an Activity [1] of 111%, an Activity [2] of 8% and an Activity [3] of 0%. The Activity [4] was 3%.
In the case of COC[C@H]1O[C@@H]2O[C@H]3[C@H](OC)[C@@H](OC)[C@@H](O[C@H]4[C@H](OC)[C@@H](OC)[C@@H](O[C@H]5[C@H](OC)[C@@H](OC)[C@@H](O[C@H]6[C@H](OC)[C@@H](OC)[C@@H](O[C@H]7[C@H](OC)[C@@H](OC)[C@@H](O[C@H]8[C@H](OC)[C@@H](OC)[C@@H](O[C@H]1[C@H](OC)[C@H]2OC)O[C@@H]8COC)O[C@@H]7COC)O[C@@H]6COC)O[C@@H]5COCc1cn(CCCCCCN[C@@H]2[C@@H](O)[C@@H](O)[C@H](O)[C@H]5COC(=O)N52)nn1)O[C@@H]4COC)O[C@@H]3COC, the Activity [1] is reported as 16%, the Activity [2] is reported as 6% and the Activity [3] is reported as 10%. The Activity [4] was 4%.
